These results are taken from patent US20040143012A1, “Method for stabilising particle size distribution of powder active principle dispersed in a liquid and uses thereof” (priority 2000, published 2004).

Where “and” joins values, the source holds several entries; their conditions need not be identical. Equal values may be shown once. Read-outs that look alike come from different tables or passages of the source.

For data set [1] the following is noted: oral, cited from earlier work.
Data set [2] is described as follows: Particle size analysis of isotretinoin powder by laser scattering granulometer, before and after dispersion in liquid media. It counts as physicochemical. As for the experimental part:
The ability of glycol ethers to stabilize the particle size of an active principle was established by means of studies aimed at comparing the particle size of an isotretinoin powder supposed to have, according to its supplier, a median of 20 μm, before and after dispersion in 5 different liquid media consisting, respectively, of:
The particle size of the isotretinoin powder before dispersion in the liquid media, ie in dry form, was analyzed on samples of 2 g of powder (the vehicle in this case being compressed air), whereas its particle size after dispersion in the various liquid media was analyzed on samples of 20 ml containing 2% (w/v) of this powder, except in the case of the oily mixture, in which the content of isotretinoin powder in the samples was 6.5% (w/v).
All the particle size analyses were carried out using a Mastersizer Banc Long laser scattering granulometer (Malvern Instruments Ltd company) and an MS1 sampler from the same company.

For data set [3] the following is noted: isotretinoin powder, supplier's statement; cited from earlier work.

The term bioavailability denotes the share of a dose that reaches the circulation, judged against a reference dose that is usually intravenous. `COc1cc(C)c(/C=C/C(C)=C/C=C/C(C)=C/C(=O)O)c(C)c1C` [acitretin]: the bioavailability in data set [1] (gel capsules of 10 and 25 mg, on average) is on record as 60%.

In the case of `CC1=C(/C=C/C(C)=C/C=C/C(C)=C\C(=O)O)C(C)(C)CCC1` [isotretinoin, 13-cis-retinoic acid], the “Median of the particle size” value in data set [2] (after dispersion in Labrafac PG (propylene glycol dicaprylocaprate), 2% (w/v)) was 193.15 μm; in data set [2] (after dispersion in Labrasol (caprylocapric macrogolglycerides), 2% (w/v)), 139.77 μm; in data set [2] (after dispersion in Transcutol (diethylene glycol monoethyl ether, DGME), 2% (w/v)), 20.86 μm; in data set [2] (after dispersion in oily mixture of the Roaccutane type (yellow wax, soybean oils, partially hydrogenated plant oil, medium-chain triglyceride), 6.5% (w/v)) it was 82.92 μm; in data set [2] (isotretinoin powder in dry form, before dispersion (2 g samples, compressed air)) it was 20 μm and 19.49 μm. Further, the “Median particle size according to supplier” value in data set [3] is given as 20 μm. In data set [1] (soft capsules (Roaccutane), suspension in oily vehicle), the bioavailability result is reported as “about 25%”.
